Laboratory results taken from patent US9556229B2, “Modification of peptides using a bis(thioether)arylbridge approach” (priority 2012, dated 2017).
Read-outs that look alike come from different tables or passages of the source. Starred links: 1 amine or outer side, 2 acyl side, 3 side chain; linkers in the order of their positions; H or OH if unused. Positions of bridges follow the written chain, without caps; N, C: chain ends. Non-standard residues stand in square brackets, D forms with d. Residues, ends and D or L forms follow the SMILES beside them. ξ: configuration not given here. *: point of attachment. DAMPA = CN(Cc1cnc2nc(N)nc(N)c2n1)c1ccc(C(=O)*)cc1; Phe(F5) = N[C@@H](Cc1c(F)c(F)c(F)c(F)c1F)C(=O)O; γGlu = O=C(O)[C@H](CCC(=O)[*:2])N[*:1]; 1Nal = N[C@@H](Cc1cccc2ccccc12)C(=O)O; mXylylene = c1cc(C[*:1])cc(C[*:2])c1; oXylylene = c1ccc(C[*:2])c(C[*:1])c1; Cha = N[C@@H](CC1CCCCC1)C(=O)O; Nicotinoyl = O=C(c1cccnc1)*; ξDisc = O=C(O)C1NCc2ccccc21; N(CH2CH2)2NH = C1CN(*)CCN1; Ahx = NCCCCCC(=O)O

Tests used:
[1] = tested on: HCT116 colorectal cancer cells
[2] = tested on: HCT116/SCID; test: Mouse subcutaneous engraftment model (HCT116/SCID); format: in vivo
From the text: Based on analysis of p53/MDM2 and PMI-N8A/MDM2 crystal structures we placed various combinations of (L)- and (D)Cys residues in specific positions of PMI sequence considering the importance of particular amino acids for peptide bioactivity (see, e.g., Tables 1 and 2. Particular combinations were in turn tAB-ed using selected bis-halogeno-aryl compounds (see, e.g., FIG. 1) that fit into spatial arrangements/dimensions available, based on computer aided molecular modeling. Since ^DPMI-a presumably lack cell permeating properties, in addition we engineered several analogues as a cell permeating compounds containing multiple Arg residues simultaneously employing combination of D- and unusual amino acids to further enhance stability and binding properties of the peptide. Analogues were subsequently tested in vitro using HCT116 colorectal cancer cells and PrestoBlue™ assay (Invitrogen). […] Selected analogues were also tested in vivo using mouse subcutaneous engraftment model (HCT116/SCID).

| Compound | EC50 [1] | tumor growth delay [2] | EC50 ([1]; read-out: EC50 [μM] HCT-116, HCT116 colorectal cancer cells, PrestoBlue assay, NA = not active) |
| --- | --- | --- | --- |
| N=C(N)NCCC[C@@H](N)C(=O)N[C@@H](CCCNC(=N)N)C(=O)N[C@@H](Cc1c(F)c(F)c(F)c(F)c1F)C(=O)N[C@@H](CCCNC(=N)N)C(=O)N[C@@H]1CSCc2ccccc2CSC[C@@H](C(=O)N[C@H](CCCNC(=N)N)C(=O)N[C@@H](CC2CCCCC2)C(=O)N[C@@H](CCCNC(=N)N)C(=O)N2Cc3ccccc3C2C(N)=O)NC(=O)[C@H](Cc2cccc3ccccc23)NC(=O)[C@H](Cc2ccc(O)cc2)NC1=O (stereo partly drawn) [ArB14Co, Arg-Arg-PhF-Arg-Cys-Tyr-Na1-Cys-Arg-Cha-Arg-DISC] (H-[dR]R[Phe(F5)]R[dC]Y[1Nal]C[dR][Cha]R[ξDisc]-NH2; linker 5-8 via oXylylene) | 11.2 ± 1.2 µM | ~14.6 days |  |
| CN(Cc1cnc2nc(N)nc(N)c2n1)c1ccc(C(=O)N[C@@H](CCC(=O)NCCCCCC(=O)N[C@H](CCCNC(=N)N)C(=O)N[C@@H](CCCNC(=N)N)C(=O)N[C@@H](Cc2c(F)c(F)c(F)c(F)c2F)C(=O)N[C@@H](CCCNC(=N)N)C(=O)N[C@@H]2CSCc3ccccc3CSC[C@@H](C(=O)N[C@H](CCCNC(=N)N)C(=O)N[C@@H](CC3CCCCC3)C(=O)N[C@@H](CCCNC(=N)N)C(=O)N3Cc4ccccc4C3C(N)=O)NC(=O)[C@H](Cc3cccc4ccccc34)NC(=O)[C@H](Cc3ccc(O)cc3)NC2=O)C(=O)O)cc1 (stereo partly drawn) [ArB14Co-MTX, MTX-Ahx-Arg-Arg-PhF-Arg-Cys-Tyr-Na1-Cys-Arg-Cha-Arg-DISC] ({DAMPA-γGlu-Ahx}-[dR]R[Phe(F5)]R[dC]Y[1Nal]C[dR][Cha]R[ξDisc]-NH2; linker 5-8 via oXylylene) | 6.9 ± 0.4 µM |  |  |
| CC(C)C[C@H](NC(=O)[C@H](CCCNC(=N)N)NC(=O)[C@@H]1CSCc2cccc(c2)CSC[C@H](NC(=O)[C@H](Cc2ccccc2)NC(=O)[C@@H](N)CCCNC(=N)N)C(=O)N[C@@H](CCCNC(=N)N)C(=O)N[C@@H](Cc2ccc(O)cc2)C(=O)N[C@@H](Cc2c[nH]c3ccccc23)C(=O)N1)C(=O)N[C@@H](CCCNC(=N)N)C(=O)N1CCC[C@H]1C(N)=O [ArB15Gm] (H-RFCRYWCRLRP-NH2; linker 3-7 via mXylylene; N-terminus assumed) | 52.2 µM |  |  |
| C[C@H](NC(=O)[C@H](Cc1c(F)c(F)c(F)c(F)c1F)NC(=O)[C@H](CO)NC(=O)[C@@H](N)[C@@H](C)O)C(=O)N[C@@H]1CSCc2ccccc2CSC[C@@H](C(=O)N[C@H](C)C(=O)N[C@@H](CC2CCCCC2)C(=O)N[C@@H](CO)C(=O)N2CCNCC2)NC(=O)[C@H](Cc2cccc3ccccc23)NC(=O)[C@H](Cc2ccc(O)cc2)NC1=O [ArB14Ao, Thr-Ser-PhF-Ala-Cys-Tyr-Na1-Cys-Ala-Cha-Ser-Pipz] (H-TS[Phe(F5)]A[dC]Y[1Nal]C[dA][Cha]S-{N(CH2CH2)2NH}; linker 5-8 via oXylylene; N-terminus assumed) | 83.3 µM |  |  |
| CC(C)C[C@H](NC(=O)[C@H](CCCNC(=N)N)NC(=O)[C@@H]1CSCc2ccccc2CSC[C@H](NC(=O)[C@H](Cc2ccccc2)NC(=O)[C@H](CCCNC(=N)N)NC(=O)c2cccnc2)C(=O)N[C@@H](CCCNC(=N)N)C(=O)N[C@@H](Cc2ccc(O)cc2)C(=O)N[C@@H](Cc2c[nH]c3ccccc23)C(=O)N1)C(=O)N[C@@H](CCCNC(=N)N)C(=O)N1CCC[C@H]1C(N)=O [ArB15FNico] (Nicotinoyl-RFCRYWCRLRP-NH2; linker 3-7 via oXylylene) | 189 µM |  |  |
| CC(C)C[C@H](NC(=O)[C@H]1CSCc2cccc(c2)Cc2cccc(c2)CSC[C@H](NC(=O)[C@H](C)NC(=O)[C@H](Cc2ccccc2)NC(=O)[C@H](CO)NC(=O)[C@@H](N)[C@@H](C)O)C(=O)N[C@@H](Cc2ccc(O)cc2)C(=O)N[C@@H](Cc2c[nH]c3ccccc23)C(=O)NCC(=O)N1)C(=O)N[C@@H](CO)C(=O)N1CCC[C@H]1C(N)=O [ArB15Eb] |  |  | 163 µM |
